From the NIST ThermoML archive (doi:10.1016/j.jct.2017.06.001)

Test: xn = mol fraction of the nth substance listed
Conditions: 100 kPa, Liquid; for speed of sound: Frequency=5 MHz, Pulse-echo method; for mass density: Vibrating tube method

OCCCCCO [1,5-pentanediol] + O
Conditions	mass density [kg/m3]	speed of sound [m/s]
298.15 K, x1 = 0.005	996.7	–
298.15 K, x1 = 0.0101	996.7	–
298.15 K, x1 = 0.0196	997.13	–
298.15 K, x1 = 0.0251	997.61	–
298.15 K, x1 = 0.0304	998.17	–
298.15 K, x1 = 0.05	999.75	–
298.15 K, x1 = 0.0769	1001.11	–
298.15 K, x1 = 0.1002	1002.09	–
298.15 K, x1 = 0.1282	–	1678.7
298.15 K, x1 = 0.1298	–	1679.1
298.15 K, x1 = 0.1332	–	1680
298.15 K, x1 = 0.1353	–	1680.5
298.15 K, x1 = 0.1358	–	1680.6
298.15 K, x1 = 0.1417	–	1681.8
298.15 K, x1 = 0.1438	1002.72	–
298.15 K, x1 = 0.1444	–	1682.3
298.15 K, x1 = 0.1473	–	1682.8
298.15 K, x1 = 0.1535	–	1683.7
298.15 K, x1 = 0.1536	–	1683.7
298.15 K, x1 = 0.1588	–	1684.3
298.15 K, x1 = 0.1603	–	1684.5
298.15 K, x1 = 0.1616	–	1684.6
298.15 K, x1 = 0.1649	–	1684.9
298.15 K, x1 = 0.1676	–	1685.1
298.15 K, x1 = 0.1771	–	1685.7
298.15 K, x1 = 0.1845	1002.56	–
298.15 K, x1 = 0.1944	–	1686.1
298.15 K, x1 = 0.2114	–	1686
298.15 K, x1 = 0.2309	–	1685.4
298.15 K, x1 = 0.247	–	1684.6
298.15 K, x1 = 0.2503	1001.62	–
298.15 K, x1 = 0.2649	–	1683.5
298.15 K, x1 = 0.2807	–	1682.5
298.15 K, x1 = 0.2987	–	1681.1
298.15 K, x1 = 0.3	1000.58	–
298.15 K, x1 = 0.3178	–	1679.6
298.15 K, x1 = 0.3343	999.9	–
298.15 K, x1 = 0.3356	–	1678
298.15 K, x1 = 0.3619	–	1675.6
298.15 K, x1 = 0.38	–	1673.8
298.15 K, x1 = 0.4015	–	1671.6
298.15 K, x1 = 0.4171	998.14	–
298.15 K, x1 = 0.4247	–	1669.1
298.15 K, x1 = 0.4487	–	1666.4
298.15 K, x1 = 0.454	997.25	–
298.15 K, x1 = 0.4652	–	1664.4
298.15 K, x1 = 0.4828	–	1662.2
298.15 K, x1 = 0.4985	–	1660.2
298.15 K, x1 = 0.5003	996.2	–
298.15 K, x1 = 0.5142	–	1658.1
298.15 K, x1 = 0.5304	–	1656
298.15 K, x1 = 0.5362	995.4	–
298.15 K, x1 = 0.5465	–	1653.8
298.15 K, x1 = 0.5643	–	1651.3
298.15 K, x1 = 0.5819	–	1648.8
298.15 K, x1 = 0.5991	–	1646.4
298.15 K, x1 = 0.6177	993.8	–
298.15 K, x1 = 0.6187	–	1643.6
298.15 K, x1 = 0.6363	–	1641.1
298.15 K, x1 = 0.6478	993.2	–
298.15 K, x1 = 0.6547	–	1638.5
298.15 K, x1 = 0.6726	–	1635.9
298.15 K, x1 = 0.6904	–	1633.4
298.15 K, x1 = 0.7025	992.2	–
298.15 K, x1 = 0.7097	–	1630.7
298.15 K, x1 = 0.729	–	1628
298.15 K, x1 = 0.7504	991.4	–
298.15 K, x1 = 0.7505	–	1625.1
298.15 K, x1 = 0.7712	–	1622.3
298.15 K, x1 = 0.7919	–	1619.6
298.15 K, x1 = 0.7927	990.6	–
298.15 K, x1 = 0.8118	–	1617
298.15 K, x1 = 0.8321	–	1614.5
298.15 K, x1 = 0.8523	–	1612
298.15 K, x1 = 0.8605	989.3	–
298.15 K, x1 = 0.8751	–	1609.2
298.15 K, x1 = 0.8978	–	1606.4
298.15 K, x1 = 0.9004	988.6	–
298.15 K, x1 = 0.9201	–	1603.7
298.15 K, x1 = 0.9427	–	1600.9
298.15 K, x1 = 0.9496	987.5	–
298.15 K, x1 = 0.9712	–	1597.4
298.15 K, x1 = 0.9832	–	1595.9
298.15 K, x1 = 0.993	–	1594.7
298.15 K, x1 = 1	986.5	1593.8
303.15 K, x1 = 0.0002	–	1510.1
303.15 K, x1 = 0.0005	–	1510.9
303.15 K, x1 = 0.0007	–	1511.8
303.15 K, x1 = 0.0011	–	1513
303.15 K, x1 = 0.0014	–	1514.2
303.15 K, x1 = 0.0019	–	1515.5
303.15 K, x1 = 0.0023	–	1517.1
303.15 K, x1 = 0.0028	–	1518.5
303.15 K, x1 = 0.0033	–	1520.2
303.15 K, x1 = 0.0038	–	1521.9
303.15 K, x1 = 0.0045	–	1524.1
303.15 K, x1 = 0.0052	–	1526.2
303.15 K, x1 = 0.006	–	1528.5
303.15 K, x1 = 0.0067	–	1530.9
303.15 K, x1 = 0.0076	–	1533.3
303.15 K, x1 = 0.0084	–	1535.8
303.15 K, x1 = 0.0093	–	1538.3
303.15 K, x1 = 0.0102	–	1540.9
303.15 K, x1 = 0.0111	–	1543.4
303.15 K, x1 = 0.0121	–	1546.1
303.15 K, x1 = 0.0131	–	1549
303.15 K, x1 = 0.0143	–	1552
303.15 K, x1 = 0.0152	–	1554.6
303.15 K, x1 = 0.0164	–	1557.6
303.15 K, x1 = 0.0176	–	1560.4
303.15 K, x1 = 0.0187	–	1563.2
303.15 K, x1 = 0.0198	–	1565.8
303.15 K, x1 = 0.0211	–	1568.8
303.15 K, x1 = 0.0224	–	1571.8
303.15 K, x1 = 0.0238	–	1575
303.15 K, x1 = 0.025	–	1577.6
303.15 K, x1 = 0.0263	–	1580.4
303.15 K, x1 = 0.0274	–	1582.8
303.15 K, x1 = 0.0286	–	1585.1
303.15 K, x1 = 0.0298	–	1587.5
303.15 K, x1 = 0.0311	–	1590.1
303.15 K, x1 = 0.0323	–	1592.4
303.15 K, x1 = 0.0336	–	1594.7
303.15 K, x1 = 0.035	–	1597.4
303.15 K, x1 = 0.0363	–	1599.7
303.15 K, x1 = 0.0378	–	1602.2
303.15 K, x1 = 0.0396	–	1605.2
303.15 K, x1 = 0.0417	–	1608.5
303.15 K, x1 = 0.0431	–	1610.7
303.15 K, x1 = 0.0455	–	1614.4
303.15 K, x1 = 0.0471	–	1616.7
303.15 K, x1 = 0.0489	–	1619.2
303.15 K, x1 = 0.0504	–	1621.1
303.15 K, x1 = 0.0519	–	1623.1
303.15 K, x1 = 0.0541	–	1625.9
303.15 K, x1 = 0.0565	–	1628.8
303.15 K, x1 = 0.0594	–	1632.1
303.15 K, x1 = 0.0615	–	1634.4
303.15 K, x1 = 0.0646	–	1637.6
303.15 K, x1 = 0.0673	–	1640.2
303.15 K, x1 = 0.0706	–	1643.2
303.15 K, x1 = 0.0746	–	1646.6
303.15 K, x1 = 0.0782	–	1649.5
303.15 K, x1 = 0.0815	–	1651.8
303.15 K, x1 = 0.0842	–	1653.7
303.15 K, x1 = 0.0876	–	1655.8
303.15 K, x1 = 0.0913	–	1658
303.15 K, x1 = 0.0937	–	1659.3
303.15 K, x1 = 0.0967	–	1660.8
303.15 K, x1 = 0.0996	–	1662.2
303.15 K, x1 = 0.1022	–	1663.4
303.15 K, x1 = 0.1053	–	1664.7
303.15 K, x1 = 0.1078	–	1665.7
303.15 K, x1 = 0.1089	–	1666.1
303.15 K, x1 = 0.1114	–	1667
303.15 K, x1 = 0.1126	–	1667.4
303.15 K, x1 = 0.1153	–	1668.3
